Common to all, as to parameters: species or system Tryporyza intacta
The target in one test is TintPBP1 (Scirpophaga excerptalis, UniProt A0A345D2V5). The test is described as follows: Fluorescence competitive binding assay with 1-NPN probe, TintPBP1. To be noted: for Ki: calculated from IC50, 1-NPN probe; for IC50: displacement of 1-NPN (2 μM), 25 °C; for Binding to TintPBP1 in competitive binding (in words): competitor 0.5–10.0 μM. On the procedure:
(§1) To measure the affinities of the sex pheromones to TintPBP1-3 proteins, we used N-Phenyl-1-naphthylamine (1-NPN) as the fluorescent probe on a Hitachi F-4500 at 25 °C based on the method of Mao et al.[17]. 1-NPN was used as the fluorescent reporter (2 μM) and 0.5–10.0 μM for each competitor was used to test fluorescence competitive binding affinities of sex pheromones. Six compounds were selected and measured in competitive binding assays. The dissociation constant for 1-NPN and binding results were analyzed by Prism software. Each of IC50 values (concentrations of ligands halving the initial fluorescence value of 1-NPN) from competitors were calculated using following equation: Ki=[IC50]/1+[1−NPN]/K1−NPN, where [1-NPN] is the free concentration of 1-NPN and K1−NPN is the dissociation constant of the complex protein/1-NPN.

The target of a further test is TintPBP2 (Scirpophaga excerptalis, UniProt A0A345D2V6). Briefly: Fluorescence competitive binding assay with 1-NPN probe, TintPBP2. The note with it: for Ki: calculated from IC50, 1-NPN probe; for IC50: displacement of 1-NPN (2 μM), 25 °C; for Binding to TintPBP2 in competitive binding (in words): competitor 0.5–10.0 μM. On the procedure:
as §1

For another test, the target named is TintPBP3 (Scirpophaga excerptalis, UniProt A0A345D2V7). Briefly: Fluorescence competitive binding assay with 1-NPN probe, TintPBP3. To be noted: for Ki: calculated from IC50, 1-NPN probe; for IC50: displacement of 1-NPN (2 μM), 25 °C; for Binding to TintPBP3 in competitive binding (in words): competitor 0.5–10.0 μM. How it is done: as §1
TintPBP3, sequence (A0A345D2V7 entry or part of it): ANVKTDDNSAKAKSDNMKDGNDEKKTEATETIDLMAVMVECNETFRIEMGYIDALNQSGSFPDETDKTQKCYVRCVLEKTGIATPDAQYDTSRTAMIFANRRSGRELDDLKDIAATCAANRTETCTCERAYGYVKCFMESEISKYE

TintPBP2, sequence (A0A345D2V6 entry or part of it): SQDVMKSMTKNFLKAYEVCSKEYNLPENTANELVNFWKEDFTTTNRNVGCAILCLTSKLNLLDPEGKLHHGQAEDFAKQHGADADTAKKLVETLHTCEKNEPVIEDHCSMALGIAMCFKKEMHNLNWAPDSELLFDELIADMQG
TintPBP1, sequence (A0A345D2V5 entry or part of it): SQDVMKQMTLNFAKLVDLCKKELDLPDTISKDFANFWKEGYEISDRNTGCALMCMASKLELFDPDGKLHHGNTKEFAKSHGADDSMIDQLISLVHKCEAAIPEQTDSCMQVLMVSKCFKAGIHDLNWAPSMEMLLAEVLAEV

The Ki is a measure of affinity in units of concentration, obtained from inhibition or displacement. The IC50 is the concentration needed to halve the response being measured. With `CCCC/C=C/CCCCCCCCCC=O` [E11–16: Ald], the inhibition constant Ki on TintPBP1 is 2.15 ± 0.16 µM; at TintPBP2, 3.58 ± 0.13 µM; on TintPBP3, 3.45 ± 0.21 µM. Moreover, the results for the half-maximal inhibitory concentration (IC50) at TintPBP1, at TintPBP2 and at TintPBP3 were 3.09 ± 0.22 µM, 4.78 ± 0.17 µM and 4.08 ± 0.24 µM, respectively.

As for `CCCC/C=C\CCCCCCCCCC=O` [Z11–16: Ald], the Ki at TintPBP1 was 2.95 ± 0.04 µM; on TintPBP2, 2.83 ± 0.11 µM; at TintPBP3, 3.96 ± 0.28 µM. Also, the IC50 at TintPBP1 came out at 4.27 ± 0.05 µM; at TintPBP2 it was 3.81 ± 0.15 µM; on TintPBP3, 4.66 ± 0.33 µM.

With `CCCC/C=C\CCCCCCCCCCOC(C)=O` [Z11–16:AC], the “Binding to TintPBP1 in competitive binding (in words)” value (“Binding to TintPBP1” for short) at TintPBP1 is given as “cannot bind”. The “Binding to TintPBP2 in competitive binding (in words)” value (“Binding to TintPBP2” for short) on TintPBP2 is on record as “cannot bind”. Moreover, the “Binding to TintPBP3 in competitive binding (in words)” value (“Binding to TintPBP3” for short) on TintPBP3 was “cannot bind”.

Take `CCCC/C=C\CCCCCCCCCCO` [Z11–16:OH]: the “Binding to TintPBP1” value on TintPBP1 is on record as “cannot bind”. In addition, on TintPBP2, the “Binding to TintPBP2” value was “cannot bind”. Moreover, on TintPBP3, the “Binding to TintPBP3” value is reported as “cannot bind”.

Take `CCCC/C=C\CCCCCCCCCCCCOC(C)=O` [Z13–18:AC]: on TintPBP1, the “Binding to TintPBP1” value is on record as “cannot bind”. Also, the “Binding to TintPBP2” value at TintPBP2 is “cannot bind”. The “Binding to TintPBP3” value at TintPBP3 is on record as “cannot bind”.

Consider `CCCC/C=C\CCCCCCCCCCCCO` [Z13–18:OH], for which, at TintPBP1, the “Binding to TintPBP1” value is “cannot bind”. Further, the “Binding to TintPBP2” value on TintPBP2 was “cannot bind”. Moreover, on TintPBP3, the “Binding to TintPBP3” value is listed as “cannot bind”.

Source of the values: publication PMC6050284, “Molecular characterization and functional differentiation of three pheromone-binding proteins from Tryporyza intacta” (Scientific Reports, 2018).
